Data from patent US8524726B2, “Amido derivatives and their use as positive allosteric modulators of metabotropic glutamate receptors” (Addex Pharma, SA, priority 2007, dated 2013).

Target: T1, recombinant human mGluR4a receptors (Homo sapiens, UniProt Q14833)
T1 construct: expressed in transfected cells
Experiment: Fluorescent cell based Ca2+ mobilization assay (FLIPR) on HEK-293 cells expressing human mGluR4
Settings: HEK-293 cells expressing hmGluR4, Fluo-4, potentiation of EC25 glutamate; mean of at least three independent experiments in duplicate; read-out: Ca2+ Flux (mean EC50)
From the text: mGluR4 Assay on HEK-Expressing Human mGluR4
Their activity was examined on recombinant human mGluR4a receptors by detecting changes in intracellular Ca^2+ concentration, using the fluorescent Ca^2+-sensitive dye Fluo-4-(AM) and a Fluorometric Imaging Plate Reader (FLIPR, Molecular Devices, Sunnyvale, Calif.)
Transfection and Cell Culture
The cDNA encoding the human metabotropic glutamate receptor (hmGluR4), (accession number NM_000841.1, NCBI Nucleotide database browser), was subcloned into an expression vector containing also the hygromycin resistance gene. In parallel, the cDNA encoding a G protein allowing redirection of the activation signal to intracellular calcium flux was subcloned into a different expression vector containing also the puromycin resistance gene. […] Positive cellular clones expressing hmGluR4 were identified in a functional assay measuring changes in calcium fluxes in response to glutamate or selective known mGluR4 orthosteric agonists and antagonists
HEK-293 cells expressing hmGluR4 were maintained in media containing DMEM, dialyzed Fetal Calf Serum (10%), Glutamax™ (2 mM), Penicillin (100 units/ml), Streptomycin (100 μg/ml), Geneticin (100 μg/ml) and Hygromycin-B (40 μg/ml) and puromycin (1 μg/ml) at 37° C./5% CO2.
Fluorescent Cell Based-Ca^2+ Mobilization Assay
Human mGluR4 HEK-293 cells were plated out 24 hours prior to FLIPR^384 assay in black-walled, clear-bottomed, poly-L-ornithine-coated 384-well plates at a density of 25,000 cells/well in a glutamine/glutamate free DMEM medium containing foetal bovine serum (10%), penicillin (100 units/ml) and streptomycin (100 μg/ml) at 37° C./5% CO2.
On the day of the assay, the medium was aspirated and the cells were loaded with a 3 μM solution of Fluo-4-AM (LuBioScience, Lucerne, Switzerland) in 0.03% pluronic acid. After 1 hour at 37° C./5% CO2, the non incorporated dye was removed by washing cell plate with the assay buffer and the cells were left in the dark at room temperature for six hours before testing. All assays were performed in a pH 7.4 buffered-solution containing 20 mM HEPES, 143 mM NaCl, 6 mM KCl, 1 mM MgSO4, 1 mM CaCl2, 0.125 mM sulfapyrazone, 0.1% glucose.
After 10 s of basal fluorescence recording, various concentrations of the compounds of the invention were added to the cells. Changes in fluorescence levels were first monitored for 180 s in order to detect any agonist activity of the compounds. Then the cells were stimulated by an EC25 glutamate concentration for an additional 110 s in order to measure enhancing activities of the compounds of the invention. EC25 glutamate concentration is the concentration giving 25% of the maximal glutamate response.
The concentration-response curves of representative compounds of the present invention were generated using the Prism GraphPad software (Graph Pad Inc, San Diego, USA). The curves were fitted to a four-parameter logistic equation: (Y=Bottom+(Top-Bottom)/(1+10^((Log EC50−X)*Hill Slope) allowing determination of EC50 values.

T1 sequence (Q14833 33-912): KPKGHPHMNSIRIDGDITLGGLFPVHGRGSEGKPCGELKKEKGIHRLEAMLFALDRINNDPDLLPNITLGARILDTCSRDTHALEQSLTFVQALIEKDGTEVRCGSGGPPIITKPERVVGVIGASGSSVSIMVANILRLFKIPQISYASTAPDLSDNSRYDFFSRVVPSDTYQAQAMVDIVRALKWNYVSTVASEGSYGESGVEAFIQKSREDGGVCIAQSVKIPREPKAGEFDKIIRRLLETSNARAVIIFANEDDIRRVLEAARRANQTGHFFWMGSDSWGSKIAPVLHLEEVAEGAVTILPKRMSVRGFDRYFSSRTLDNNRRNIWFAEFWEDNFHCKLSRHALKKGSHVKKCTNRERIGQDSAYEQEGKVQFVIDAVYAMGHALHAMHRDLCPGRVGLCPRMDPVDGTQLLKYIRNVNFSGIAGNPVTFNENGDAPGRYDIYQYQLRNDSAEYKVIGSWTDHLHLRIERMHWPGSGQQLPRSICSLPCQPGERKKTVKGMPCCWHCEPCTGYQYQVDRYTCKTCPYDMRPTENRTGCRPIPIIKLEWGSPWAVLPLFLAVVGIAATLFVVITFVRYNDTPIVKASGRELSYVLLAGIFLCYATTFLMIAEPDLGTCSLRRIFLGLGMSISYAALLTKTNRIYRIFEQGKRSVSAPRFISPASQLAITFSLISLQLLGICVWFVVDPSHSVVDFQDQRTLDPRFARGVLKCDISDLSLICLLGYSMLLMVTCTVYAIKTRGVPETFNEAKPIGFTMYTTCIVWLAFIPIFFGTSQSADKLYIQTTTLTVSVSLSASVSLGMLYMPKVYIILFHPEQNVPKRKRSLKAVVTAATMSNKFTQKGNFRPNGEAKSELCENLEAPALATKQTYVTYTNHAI

EC50 [nM] | SMILES
< 1000 | O=C(Nc1ccc(Oc2ncccn2)c(Cl)c1)c1ccccn1 [Compound 3-2, N-(3-Chloro-4-(pyrimidin-2-yloxy)phenyl)picolinamide]
1000 to 10000 | O=C(Nc1ccc(Oc2ncccn2)c(Cl)c1)c1nccs1 [Compound 3-4, N-(3-Chloro-4-(pyrimidin-2-yloxy)phenyl)thiazole-2-carboxamide]
< 1000 | O=C(Nc1ccc(Oc2ccccn2)c(Cl)c1)c1ccccn1 [Compound 3-5, N-(3-Chloro-4-(pyridin-2-yloxy)phenyl)picolinamide]
1000 to 10000 | O=C(Nc1ccc(Oc2ccc(C(F)(F)F)cn2)c(Cl)c1)c1ccccn1 [Compound 3-8, N-(3-Chloro-4-(5-(trifluoromethyl)pyridin-2-yloxy)phenyl)picolinamide]
< 1000 | N#Cc1ccc(Oc2ccc(NC(=O)c3ccccn3)cc2Cl)cc1 [Compound 3-15, N-(3-Chloro-4-(4-cyanophenoxy)phenyl)picolinamide]
1000 to 10000 | CCC(=O)N1CCN(c2ccc(NC(=O)c3ccccn3)cc2Cl)CC1 [Compound 4-3, N-(3-Chloro-4-(4-propionylpiperazin-1-yl)phenyl)picolinamide]
1000 to 10000 | O=C(Nc1ccc(N2CCN(C(=O)c3ccccc3)CC2)c(Cl)c1)c1ccccn1 [Compound 4-4, N-(4-(4-Benzoylpiperazin-1-yl)-3-chlorophenyl)picolinamide]
1000 to 10000 | O=C(Nc1ccc(N2CCN(Cc3ccccc3)CC2)c(Cl)c1)c1ccccn1 [Compound 4-5, N-(4-(4-Benzylpiperazin-1-yl)-3-chlorophenyl)picolinamide]

More lines, now with the values behind:

SMILES | EC50 [nM]
O=C(Nc1cccc(Cl)c1)c1cccs1 [Compound 1-2, N-(3-Chlorophenyl)thiophene-2-carboxamide] | 1000 to 10000
O=C(Nc1cccc(Cl)c1)c1ccccn1 [Compound 1-3, N-(3-Chlorophenyl)picolinamide] | < 1000
O=C(Nc1cccc(Cl)c1)c1ccc[nH]1 [Compound 1-5, N-(3-Chlorophenyl)-1H-pyrrole-2-carboxamide] | 1000 to 10000
COc1cccc(NC(=O)c2csc(C)n2)c1 [Compound 2-4, N-(3-Methoxyphenyl)-2-methylthiazole-4-carboxamide] | 1000 to 10000
COc1cccc(NC(=O)c2nccs2)c1 [Compound 2-5, N-(3-Methoxyphenyl)thiazole-2-carboxamide] | 1000 to 10000
O=C(COc1cccc(NC(=O)c2ccccn2)c1)c1cccc(Cl)c1 [Compound 2-7, N-(3-(2-(3-Chlorophenyl)-2-oxoethoxy)phenyl)picolinamide] | 1000 to 10000
O=C(Nc1cccc(OCCCc2ccccc2)c1)c1ccccn1 [Compound 2-8, N-(3-(3-Phenylpropoxy)phenyl)picolinamide] | 1000 to 10000
COc1ccccc1C(=O)COc1cccc(NC(=O)c2ccccn2)c1 [Compound 2-9, N-(3-(2-(2-Methoxyphenyl)-2-oxoethoxy)phenyl)picolinamide] | 1000 to 10000
COc1cccc(C(=O)COc2cccc(NC(=O)c3ccccn3)c2)c1 [Compound 2-10, N-(3-(2-(3-Methoxyphenyl)-2-oxoethoxy)phenyl)picolinamide] | 1000 to 10000
O=C(COc1cccc(NC(=O)c2ccccn2)c1)c1cccc(F)c1 [Compound 2-11, N-(3-(2-(3-Fluorophenyl)-2-oxoethoxy)phenyl)picolinamide] | 1000 to 10000
O=C(Nc1cccc(OCC(=O)c2ccccc2Cl)c1)c1ccccn1 [Compound 2-12, N-(3-(2-(2-Chlorophenyl)-2-oxoethoxy)phenyl)picolinamide] | 1000 to 10000
COc1cccc(NC(=O)c2cc(C)on2)c1 [Compound 2-13, N-(3-Methoxyphenyl)-5-methylisoxazole-3-carboxamide] | 1000 to 10000
COc1cc(NC(=O)c2ccccn2)ccc1F [Compound 2-14, N-(4-Fluoro-3-methoxyphenyl)picolinamide] | < 1000
O=C(Nc1cccc(OCC(=O)c2ccccc2F)c1)c1ccccn1 [Compound 2-15, N-(3-(2-(2-Fluorophenyl)-2-oxoethoxy)phenyl)picolinamide] | 1000 to 10000
COc1cccc(NC(=O)c2ccncn2)c1 [Compound 2-16, N-(3-Methoxyphenyl)pyrimidine-4-carboxamide] | 1000 to 10000
COc1cc(NC(=O)c2cccc(F)n2)ccc1F [Compound 2-17, 6-Fluoro-N-(4-fluoro-3-methoxyphenyl)picolinamide] | 1000 to 10000
COc1cc(NC(=O)c2nccs2)ccc1F [Compound 2-18, N-(4-Fluoro-3-methoxyphenyl)thiazole-2-carboxamide] | 1000 to 10000

Test system: not given
Experiment: not given
Settings: not given

melting point [°C] | SMILES
195 to 197 | O=C(Nc1ccc(Oc2ncccn2)c(Cl)c1)c1ccccn1 [Compound 3-2, N-(3-Chloro-4-(pyrimidin-2-yloxy)phenyl)picolinamide]
142 to 150 | Cc1nc(C(=O)Nc2ccc(Oc3ncccn3)c(Cl)c2)cs1 [Compound 3-3, N-(3-Chloro-4-(pyrimidin-2-yloxy)phenyl)-2-methylthiazole-4-carboxamide]
154 | O=C(Nc1ccc(Oc2ncccn2)c(Cl)c1)c1nccs1 [Compound 3-4, N-(3-Chloro-4-(pyrimidin-2-yloxy)phenyl)thiazole-2-carboxamide]
254 to 260 | O=C(Nc1ccc(Oc2ccccn2)c(Cl)c1)c1ccccn1 [Compound 3-5, N-(3-Chloro-4-(pyridin-2-yloxy)phenyl)picolinamide]
102 to 104 | O=C(Nc1ccc(Oc2cc(F)ccc2F)c(Cl)c1)c1ccccn1 [Compound 3-6, N-(3-Chloro-4-(2,5-difluorophenoxy)phenyl)picolinamide]
92 to 94 | O=C(Nc1ccc(Oc2ccc(C(F)(F)F)cn2)c(Cl)c1)c1ccccn1 [Compound 3-8, N-(3-Chloro-4-(5-(trifluoromethyl)pyridin-2-yloxy)phenyl)picolinamide]
203 to 205 | COc1cc(NC(=O)c2ccccn2)ccc1Oc1ncccn1 [Compound 3-9, N-(3-Methoxy-4-(pyrimidin-2-yloxy)phenyl)picolinamide]
78 to 80 | O=C(Nc1ccc(Oc2cccc(F)c2)c(Cl)c1)c1ccccn1 [Compound 3-12, N-(3-Chloro-4-(3-fluorophenoxy)phenyl)picolinamide]
104 to 105 | O=C(Nc1ccc(Oc2ccc(F)cc2)c(Cl)c1)c1ccccn1 [Compound 3-13, N-(3-Chloro-4-(4-fluorophenoxy)phenyl)picolinamide]
157 to 159 | N#Cc1ccc(Oc2ccc(NC(=O)c3ccccn3)cc2Cl)cc1 [Compound 3-15, N-(3-Chloro-4-(4-cyanophenoxy)phenyl)picolinamide]
223 to 228 | N#Cc1cccnc1Oc1ccc(NC(=O)c2ccccn2)cc1Cl [Compound 3-16, N-(3-Chloro-4-(3-cyanopyridin-2-yloxy)phenyl)picolinamide]
156 to 158 | CC(C)C(=O)N1CCN(c2ccc(NC(=O)c3ccccn3)cc2Cl)CC1 [Compound 4-2, N-(3-Chloro-4-(4-isobutyrylpiperazin-1-yl)phenyl)picolinamide]
176 to 179 | CCC(=O)N1CCN(c2ccc(NC(=O)c3ccccn3)cc2Cl)CC1 [Compound 4-3, N-(3-Chloro-4-(4-propionylpiperazin-1-yl)phenyl)picolinamide]
161 to 163 | O=C(Nc1ccc(N2CCN(C(=O)c3ccccc3)CC2)c(Cl)c1)c1ccccn1 [Compound 4-4, N-(4-(4-Benzoylpiperazin-1-yl)-3-chlorophenyl)picolinamide]
92 to 94 | O=C(Nc1ccc(N2CCN(Cc3ccccc3)CC2)c(Cl)c1)c1ccccn1 [Compound 4-5, N-(4-(4-Benzylpiperazin-1-yl)-3-chlorophenyl)picolinamide]

The next lines start with the compound.

SMILES | melting point [°C]
O=C(Nc1cccc(Cl)c1)c1cccs1 [Compound 1-2, N-(3-Chlorophenyl)thiophene-2-carboxamide] | 139 to 140
O=C(Nc1cccc(F)c1)c1ccccn1 [Compound 1-4, N-(3-Fluorophenyl)picolinamide] | 74 to 75
O=C(Nc1cccc(Cl)c1)c1ccc[nH]1 [Compound 1-5, N-(3-Chlorophenyl)-1H-pyrrole-2-carboxamide] | 138 to 140
O=C(COc1cccc(NC(=O)c2ccco2)c1)c1ccc(F)cc1 [Compound 2-2, Furan-2-carboxylic acid {3-[2-(4-fluoro-phenyl)-2-oxo-ethoxy]-phenyl}-amide] | 148 to 149
COc1cccc(NC(=O)c2csc(C)n2)c1 [Compound 2-4, N-(3-Methoxyphenyl)-2-methylthiazole-4-carboxamide] | 87 to 89
COc1cccc(NC(=O)c2nccs2)c1 [Compound 2-5, N-(3-Methoxyphenyl)thiazole-2-carboxamide] | 53 to 57
O=C(COc1cccc(NC(=O)c2ccccn2)c1)c1cccc(Cl)c1 [Compound 2-7, N-(3-(2-(3-Chlorophenyl)-2-oxoethoxy)phenyl)picolinamide] | 139 to 140
O=C(Nc1cccc(OCCCc2ccccc2)c1)c1ccccn1 [Compound 2-8, N-(3-(3-Phenylpropoxy)phenyl)picolinamide] | 49 to 51
COc1ccccc1C(=O)COc1cccc(NC(=O)c2ccccn2)c1 [Compound 2-9, N-(3-(2-(2-Methoxyphenyl)-2-oxoethoxy)phenyl)picolinamide] | 136 to 137
COc1cccc(C(=O)COc2cccc(NC(=O)c3ccccn3)c2)c1 [Compound 2-10, N-(3-(2-(3-Methoxyphenyl)-2-oxoethoxy)phenyl)picolinamide] | 114.5 to 115.5
O=C(COc1cccc(NC(=O)c2ccccn2)c1)c1cccc(F)c1 [Compound 2-11, N-(3-(2-(3-Fluorophenyl)-2-oxoethoxy)phenyl)picolinamide] | 118 to 121
COc1cccc(NC(=O)c2cc(C)on2)c1 [Compound 2-13, N-(3-Methoxyphenyl)-5-methylisoxazole-3-carboxamide] | 98 to 101
O=C(Nc1cccc(OCC(=O)c2ccccc2F)c1)c1ccccn1 [Compound 2-15, N-(3-(2-(2-Fluorophenyl)-2-oxoethoxy)phenyl)picolinamide] | 98 to 101
COc1cccc(NC(=O)c2ccncn2)c1 [Compound 2-16, N-(3-Methoxyphenyl)pyrimidine-4-carboxamide] | 119 to 122
COc1cc(NC(=O)c2cccc(F)n2)ccc1F [Compound 2-17, 6-Fluoro-N-(4-fluoro-3-methoxyphenyl)picolinamide] | 124 to 125
COc1cc(NC(=O)c2nccs2)ccc1F [Compound 2-18, N-(4-Fluoro-3-methoxyphenyl)thiazole-2-carboxamide] | 103 to 105
